Data published in patent EP4786474A1, “CRYSTALLINE FORM OF QUINAZOLINE DERIVATIVE AND PREPARATION METHOD THEREFOR” (Jiangsu Hengrui Pharmaceuticals Co., Ltd., priority 2023, dated 2025).

Assays:
Assay type in all cases: physicochemical
[1] = DVS (dynamic vapor sorption) hygroscopicity testing
Text: According to the description of hygroscopicity characteristics and the definition of hygroscopic weight gain in "General Rule 9103, Guidelines for Hygroscopicity Trials for Pharmaceuticals" in the Chinese Pharmacopoeia, Volume IV, 2015 Edition: • deliquescent: sufficient water is absorbed to form a liquid; • extremely hygroscopic: the hygroscopic weight gain is not less than 15%; • hygroscopic: the hygroscopic weight gain is less than 15% but not less than 2%; • slightly hygroscopic: the hygroscopic weight gain is less than 2% but not less than 0.2%; • nonhygroscopic or practically nonhygroscopic: the hygroscopic weight gain is less than 0.2%.
DVS refers to dynamic vapor sorption: The analysis was performed using SMS DVS Advantage; at 25 °C, the humidity was changed as follows: 50%-95%-0%-95%-50%, in steps of 10% (5% for the last step) (specific humidity ranges are shown in corresponding patterns, and those listed here were used in most cases); the criterion was dm/dt being not greater than 0.002%.

[2] = Long-term/accelerated stability; settings: for physical and chemical stability: long-term/accelerated conditions
Protocol: Samples of the crystal forms D, E, and H were left to stand under 25 °C/60% RH and 40 °C/75% RH conditions to investigate their stability: Table 30.

[3] = Influencing factor stability study; settings: for physical and chemical stability: light exposure (4500 Lux), high temperature (40 °C and 60 °C), high humidity (RH 75% and RH 92.5%), 30 days
Protocol: Samples of the crystal forms D, E, and H were spread in open containers and left to stand under light exposure (4500 Lux), high temperature (40 °C and 60 °C), and high humidity (RH 75% and RH 92.5%) conditions for 1 month to investigate their stability.

[4] = accelerated experimental conditions, 70% RH
[5] = normal storage conditions, 25 °C and 60% RH

In the case of `C=CC(=O)N1[C@@H]2CC[C@H]1C[C@@H](Oc1ccc3ncnc(Nc4ccc(Oc5ccn6ncnc6c5)c(C)c4F)c3c1)C2` [Crystal form D, 1-(endo-3-((4-((4-([1,2,4]Triazolo[1,5-a]pyridin-7-yloxy)-2-fluoro-3-methylphenyl)amino)quinazolin-6-yl)oxy)-8-azabicyclo[3.2.1]octan-8-yl)prop-2-en-1-one], the hygroscopic weight gain [1, 4] was “about 3.23%”, the “crystal form re-identified after DVS testing” value [1] was “the crystal form did not change” and the hygroscopic weight gain ([1]; extreme conditions, 90% RH) was “about 3.52%”. The hygroscopic weight gain [1, 5] was “about 3.07%”, the Color and appearance ([2]; 25 °C/60% RH, 1 month) was “White powder” and the Crystal form ([2]; 25 °C/60% RH, 1 month) was “No change”. For the same compound, the Color and appearance ([2]; 25 °C/60% RH, 2 months) was “White powder”, the Crystal form ([2]; 25 °C/60% RH, 2 months) was “No change” and the Color and appearance ([2]; 25 °C/60% RH, 3 months) was “White powder”. For the same compound, the Crystal form ([2]; 25 °C/60% RH, 3 months) was “No change”, the Color and appearance ([2]; 25 °C/60% RH, 6 months) was “White powder” and the Crystal form ([2]; 25 °C/60% RH, 6 months) was “No change”. For the same compound, the Color and appearance ([2]; 25 °C/60% RH, 14 days) was “White powder”, the Crystal form ([2]; 25 °C/60% RH, 14 days) was “No change” and the Color and appearance ([2]; 40 °C/75% RH, 1 month) was “White powder”. For the same compound, the Crystal form ([2]; 40 °C/75% RH, 1 month) was “No change”, the Color and appearance ([2]; 40 °C/75% RH, 2 months) was “White powder” and the Crystal form ([2]; 40 °C/75% RH, 2 months) was “No change”. The Color and appearance ([2]; 40 °C/75% RH, 3 months) was “White powder”, the Crystal form ([2]; 40 °C/75% RH, 3 months) was “No change” and the Color and appearance ([2]; 40 °C/75% RH, 6 months) was “White powder”. The Crystal form ([2]; 40 °C/75% RH, 6 months) was “No change”, the Color and appearance ([2]; 40 °C/75% RH, 14 days) was “White powder” and the Crystal form ([2]; 40 °C/75% RH, 14 days) was “No change”. The Color and appearance ([2]; Initial, 0) was “White powder”, the Crystal form ([2]; Initial, 0) was “Crystal form D” and the “physical and chemical stability” value [2] was “Conclusion: Under long-term/accelerated conditions, the crystal form D exhibited good physical and chemical stability”. The Color and appearance ([3]; 40 °C, 1 month) was “White powder”, the Crystal form ([3]; 40 °C, 1 month) was “No change” and the “Purity (%)” value ([3]; 40 °C, 1 month) was 99.0%. The Color and appearance ([3]; 40 °C, 7 days) was “White powder”, the Crystal form ([3]; 40 °C, 7 days) was “No change” and the Color and appearance ([3]; 40 °C, 13 days) was “White powder”. The Crystal form ([3]; 40 °C, 13 days) was “No change”, the “Purity (%)” value ([3]; 40 °C, 13 days) was 99.4% and the Color and appearance ([3]; 60 °C, 1 month) was “White powder”. The Crystal form ([3]; 60 °C, 1 month) was “No change”, the “Purity (%)” value ([3]; 60 °C, 1 month) was 99.2% and the Color and appearance ([3]; 60 °C, 7 days) was “White powder”. For the same compound, the Crystal form ([3]; 60 °C, 7 days) was “No change”, the Color and appearance ([3]; 60 °C, 13 days) was “White powder” and the Crystal form ([3]; 60 °C, 13 days) was “No change”. The “Purity (%)” value ([3]; 60 °C, 13 days) was 99.4%, the Color and appearance ([3]; 75% RH, 1 month) was “White powder” and the Crystal form ([3]; 75% RH, 1 month) was “No change”. For the same compound, the Color and appearance ([3]; 75% RH, 13 days) was “White powder”, the Crystal form ([3]; 75% RH, 13 days) was “No change” and the Color and appearance ([3]; 92.5% RH, 1 month) was “White powder”. For the same compound, the Crystal form ([3]; 92.5% RH, 1 month) was “No change”, the Color and appearance ([3]; 92.5% RH, 13 days) was “White powder” and the Crystal form ([3]; 92.5% RH, 13 days) was “No change”. The Color and appearance ([3]; 4500 Lux, 1 month) was “White powder”, the Crystal form ([3]; 4500 Lux, 1 month) was “No change” and the “Purity (%)” value ([3]; 4500 Lux, 1 month) was 99.2%. For the same compound, the Color and appearance ([3]; 4500 Lux, 7 days) was “White powder”, the Crystal form ([3]; 4500 Lux, 7 days) was “No change” and the “Purity (%)” value ([3]; 4500 Lux, 7 days) was 99.4%. The Color and appearance ([3]; 4500 Lux, 13 days) was “White powder”, the Crystal form ([3]; 4500 Lux, 13 days) was “No change” and the “Purity (%)” value ([3]; 4500 Lux, 13 days) was 99.3%. The Color and appearance ([3]; Initial, 0) was “White powder”, the Crystal form ([3]; Initial, 0) was “Crystal form D” and the “physical and chemical stability” value [3] was “Conclusion: Standing under light exposure (4500 Lux), high temperature (40 °C and 60 °C), and high humidity (RH 75% and RH 92.5%) conditions for 30 days, the crystal form D exhibited good physical and chemical stability”.
For `C=CC(=O)N1[C@@H]2CC[C@H]1C[C@@H](Oc1ccc3ncnc(Nc4ccc(Oc5ccn6ncnc6c5)c(C)c4F)c3c1)C2` [Crystal form E, 1-(endo-3-((4-((4-([1,2,4]Triazolo[1,5-a]pyridin-7-yloxy)-2-fluoro-3-methylphenyl)amino)quinazolin-6-yl)oxy)-8-azabicyclo[3.2.1]octan-8-yl)prop-2-en-1-one], the hygroscopic weight gain [1, 4] was “about 0.15%”, the “crystal form re-identified after DVS testing” value [1] was “the crystal form did not change” and the hygroscopic weight gain ([1]; extreme conditions, 90% RH) was “about 0.25%”. For the same compound, the hygroscopic weight gain [1, 5] was “about 0.11%”, the Color and appearance ([2]; 25 °C/60% RH, 1 month) was “White powder” and the Crystal form ([2]; 25 °C/60% RH, 1 month) was “No change”. The Color and appearance ([2]; 25 °C/60% RH, 2 months) was “White powder”, the Crystal form ([2]; 25 °C/60% RH, 2 months) was “No change” and the Color and appearance ([2]; 25 °C/60% RH, 3 months) was “White powder”. For the same compound, the Crystal form ([2]; 25 °C/60% RH, 3 months) was “No change”, the Color and appearance ([2]; 25 °C/60% RH, 6 months) was “White powder” and the Crystal form ([2]; 25 °C/60% RH, 6 months) was “No change”. The Color and appearance ([2]; 25 °C/60% RH, 14 days) was “White powder”, the Crystal form ([2]; 25 °C/60% RH, 14 days) was “No change” and the Color and appearance ([2]; 40 °C/75% RH, 1 month) was “White powder”. For the same compound, the Crystal form ([2]; 40 °C/75% RH, 1 month) was “No change”, the Color and appearance ([2]; 40 °C/75% RH, 2 months) was “White powder” and the Crystal form ([2]; 40 °C/75% RH, 2 months) was “No change”. The Color and appearance ([2]; 40 °C/75% RH, 3 months) was “White powder”, the Crystal form ([2]; 40 °C/75% RH, 3 months) was “No change” and the Color and appearance ([2]; 40 °C/75% RH, 6 months) was “White powder”. The Crystal form ([2]; 40 °C/75% RH, 6 months) was “No change”, the Color and appearance ([2]; 40 °C/75% RH, 14 days) was “White powder” and the Crystal form ([2]; 40 °C/75% RH, 14 days) was “No change”. For the same compound, the Color and appearance ([2]; Initial, 0) was “White powder”, the Crystal form ([2]; Initial, 0) was “Crystal form E” and the “physical and chemical stability” value [2] was “Conclusion: Under long-term/accelerated conditions, the crystal form E exhibited good physical and chemical stability”. The Color and appearance ([3]; 40 °C, 1 month) was “White powder”, the Crystal form ([3]; 40 °C, 1 month) was “No change” and the “Purity (%)” value ([3]; 40 °C, 1 month) was 99.3%. For the same compound, the Color and appearance ([3]; 40 °C, 7 days) was “White powder”, the Crystal form ([3]; 40 °C, 7 days) was “No change” and the Color and appearance ([3]; 40 °C, 14 days) was “White powder”. The Crystal form ([3]; 40 °C, 14 days) was “No change”, the Color and appearance ([3]; 60 °C, 1 month) was “White powder” and the Crystal form ([3]; 60 °C, 1 month) was “No change”. The Color and appearance ([3]; 60 °C, 7 days) was “White powder”, the Crystal form ([3]; 60 °C, 7 days) was “No change” and the Color and appearance ([3]; 60 °C, 14 days) was “White powder”. The Crystal form ([3]; 60 °C, 14 days) was “No change”, the Color and appearance ([3]; 75% RH, 1 month) was “White powder” and the Crystal form ([3]; 75% RH, 1 month) was “No change”. The Color and appearance ([3]; 75% RH, 7 days) was “White powder”, the Crystal form ([3]; 75% RH, 7 days) was “No change” and the Color and appearance ([3]; 75% RH, 14 days) was “White powder”. For the same compound, the Crystal form ([3]; 75% RH, 14 days) was “No change”, the Color and appearance ([3]; 92.5% RH, 1 month) was “White powder” and the Crystal form ([3]; 92.5% RH, 1 month) was “No change”. The Color and appearance ([3]; 92.5% RH, 7 days) was “White powder”, the Crystal form ([3]; 92.5% RH, 7 days) was “No change” and the Color and appearance ([3]; 92.5% RH, 14 days) was “White powder”. For the same compound, the Crystal form ([3]; 92.5% RH, 14 days) was “No change”, the Color and appearance ([3]; 4500 Lux, 1 month) was “White powder” and the Crystal form ([3]; 4500 Lux, 1 month) was “No change”. The “Purity (%)” value ([3]; 4500 Lux, 1 month) was 99.4%, the Color and appearance ([3]; 4500 Lux, 7 days) was “White powder” and the Crystal form ([3]; 4500 Lux, 7 days) was “No change”. For the same compound, the Color and appearance ([3]; 4500 Lux, 14 days) was “White powder”, the Crystal form ([3]; 4500 Lux, 14 days) was “No change” and the Color and appearance ([3]; Initial, 0) was “White powder”. For the same compound, the Crystal form ([3]; Initial, 0) was “Crystal form E” and the “physical and chemical stability” value [3] was “Conclusion: Standing under light exposure (4500 Lux), high temperature (40 °C and 60 °C), and high humidity (RH 75% and RH 92.5%) conditions for 30 days, the crystal form E exhibited good physical and chemical stability”.
In the case of `C=CC(=O)N1[C@@H]2CC[C@H]1C[C@@H](Oc1ccc3ncnc(Nc4ccc(Oc5ccn6ncnc6c5)c(C)c4F)c3c1)C2` [Crystal form J, 1-(endo-3-((4-((4-([1,2,4]Triazolo[1,5-a]pyridin-7-yloxy)-2-fluoro-3-methylphenyl)amino)quinazolin-6-yl)oxy)-8-azabicyclo[3.2.1]octan-8-yl)prop-2-en-1-one], the hygroscopic weight gain [1, 4] was “about 2.64%”, the hygroscopic weight gain ([1]; extreme conditions, 90% RH) was “about 8.10%” and the hygroscopic weight gain [1, 5] was “about 2.44%”.
